Common to all, as to format: cell-based
Assay [1] concerns P. aeruginosa strain ATCC 27853. As to conditions: ATCC 27853. A digest of the protocol: (§1)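 Peptides serially diluted 1:2 to final 0.25–256 μg/ml in Mueller Hinton broth, inoculated with 1-5×10^5 CFUs/ml from mid-log culture. Incubated 16-20 hours at 37° C. MIC = lowest peptide concentration giving a clear well.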
Assay [2] concerns E. coli ATCC strain 25922. The experiment in a line: Minimal Inhibitory Concentration, microtiter broth dilution. The settings on record: ATCC strain 25922. In short, it runs like this:
as §1
In general terms: Dilution methods test growth across graded concentrations, often in twofold steps.

Assay [3] concerns S. aureus ATCC 29213. As to conditions: ATCC 29213.
For assay [4], the system named is A-549 human lung carcinoma cells. As to conditions: 24 h. As for the experimental part:
(§2) Human lung carcinoma cells, A-549 (ATCC), and human breast carcinoma cells, MDA-435 (from Sandoz), were grown in Ham's F12K medium (GIBCO-BRL) supplemented with […] fetal bovine serum. Human chronic myelogenous leukemia cells, K-562 (ATCC), were maintained in RPMI 1640 medium (GIBCO-BRL) supplemented with 10% fetal bovine serum. Human melanoma cell line, WM 1617 (from the Wistar Institute), was maintained in 2% Tumor media.
(§3) Cytotoxicity assays were performed on the cell lines described above using CytoLite (Packard Instrument Company) following the manufacture's instruction. Briefly, 2×10^4cells/well were seeded into black, 96-well ViewPlates (Packard Instrument Company) in 100 μl/well growth medium. Ser. dilutions of Magainin peptides were then added into the cells and the plates incubated for 24 hours in a humidified 5% CO2 atmosphere at 37° C. Following incubation, 25 μl/well of CytoLite activator solution was added followed by 125 μl/well of amplifier solution. Luminescence was measured on TopCount Microplate Scintillation and Luminescence counter (Packard Instrument Company) using a 1 second count time in SPC (single photon counting) mode at 25 ° C. All assays were performed in triplicate. The peptides tested in this assay were MSI-78(SEQ ID NO: 154 —NH2), MSI-1858(SEQ ID NO: 154 —NH2 Methane Sulfonate), MSI-344(SEQ ID NO: 154 —OH) and MSI-1857(SEQ ID NO: 154 —OH Methane Sulfonate). The results of these assays are shown in FIGS. 2-9 with the corresponding IC50 values in Table VIII. In all cases the activity of the methane sulfonated peptide was as good or better than the parent peptide as indicated by both the survival curves and the IC50 values.

Assay [5] has as its system K-562 human chronic myelogenous leukemia cells. The settings on record: 24 h. As for the experimental part: as §2, §3
Assay [6] concerns MDA-435 human breast carcinoma cells. The settings on record: 24 h. The protocol: as §2, §3
Assay [7] has as its system WM 1617 human melanoma cells. As to conditions: 24 h. The protocol: as §2, §3

Where no end group is shown, it is not given here.

For orientation: IC50 means the midpoint of a concentration-inhibition curve.

GIGKFLKKAKKFGKAFVKILKK [MSI-78]: the “MIC P. aeruginosa ATCC 27853” value in assay [1] lay within 16 to 32 µg/mL. Besides, the “MIC E. coli ATCC 25922” value in assay [2] was 32 µg/mL. The “MIC S. aureus ATCC 29213” value in assay [3] came out at 16 µg/mL. In addition, the IC50 stood at 3 µM in assay [4], 9 µM in assay [5], 4 µM in assay [6] and 3 µM in assay [7].

The values are drawn from patent US6348445B1, “Biologically active peptides with reduced toxicity in animals and a method for preparing same” (priority 1992, dated 2002).
